Experimental data reported in patent US20090318424A1, “NOVEL COMPOUNDS” (priority 2006, published 2009).
“Also recorded” adds a separate entry of the source.

These molecules were tested on influx of neutrophils to the lung in LPS-challenged rats (assay: Rat LPS neutrophilia model). Settings: LPS aerosol 100 ug/ml 15 min, lavage 4 hours later; in at least one of the range of conditions tested.
Assay type: in vivo
Protocol: The effect of compounds on the influx of neutrophils to the lung in LPS-challenged rats is evaluated as follows. The test compound is suspended in one of the following solutions: 0.5% tween 80/PBS, 0.5% tween 80/saline, 10% EtOH/saline (with pH adjusted to 2.0, or 8.0 with HCl, or unadjusted), Saline @ pH 2.0, 6.5 or 8.0, 0.5% Tragacanth, 1% DMSO/20% Encapsin/Saline, or acidified 5% Tragacanth. The suspension process may be aided by the use of a glass homogenizer. For intratracheal administration, the animals are anesthetized with inhaled isoflurane and placed in a supine position, the trachea is intubated with a steel gavage needle (1.5 inch, 22 gauge, small ball) or a Penn-Century Microsprayer Aerosolizer (model IA-IB) and 200 ul of dosing solution is delivered. The animals are visually monitored during the recovery process, which typically occurs within two minutes.
Rats treated with compound or vehicle (15 min-24 hours pretreatment) are exposed to an LPS aerosol (100 ug/ml) for 15 min. Four hours later the rats are euthanized with pentobarbital (100 mg/kg, i.p.) and the airways are lavaged with 5 washes of 5 ml of phosphate buffered saline. The harvested cells are stained (Diffquick) and counted to determine total and differential cell data. In a typical study, macrophages represent 40-70% of the total cells, and polymorphonuclear cells 30-60% of the total cells. Inhibition of neutrophil levels relative to no compound controls is calculated based on the differential counts.
The assay has varying conditions, such as concentration, pretreat time, form of the compound (crystalline, amorphous, salts, micronised), and a wet or dry application of the compound. The data is obtained as % inhibition using a particular concentration and pretreat time.
In the case of `CSc1nc(-c2cc(NC(=O)c3ccsc3)ccc2C)c2c(n1)N(c1c(F)cccc1F)C(=O)NC2` [7(c), N-{3-[8-(2,6-Difluorophenyl)-2-(methylthio)-7-oxo-5,6,7,8-tetrahydropyrimido[4,5-d]pyrimidin-4-yl]-4-methylphenyl}-3-thiophenecarboxamide], the inhibition of neutrophilia is reported as “inactive”.
`Cc1ccc(C(=O)Nc2ccc(F)cc2)cc1-c1nc(NCCN(C)C)nc2c1CNC(=O)N2c1c(F)cccc1F` [8(c), 3-(8-(2,6-difluorophenyl)-2-{[2-(dimethylamino)ethyl]amino}-7-oxo-5,6,7,8-tetrahydropyrimido[4,5-d]pyrimidin-4-yl)-N-(4-fluorophenyl)-4-methylbenzamide] was tested, and the inhibition of neutrophilia was “statistically significant inhibition”.
With `CSc1nc(-c2cc(NC(=O)c3ccc(C)c(F)c3)ccc2C)c2c(n1)N(c1c(F)cccc1F)C(=O)NC2` [23(c), N-{3-[8-(2,6-difluorophenyl)-2-(methylthio)-7-oxo-5,6,7,8-tetrahydropyrimido[4,5-d]pyrimidin-4-yl]-4-methylphenyl}-3-fluoro-4-methylbenzamide] the inhibition of neutrophilia was “inactive”.
With `CCCNC(=O)c1ccc(C)c(-c2nc(NCCCN(CC)CC)nc3c2CNC(=O)N3c2c(F)cccc2F)c1` [29(c), 3-[2-{[3-(diethylamino)propyl]amino}-8-(2,6-difluorophenyl)-7-oxo-5,6,7,8-tetrahydropyrimido[4,5-d]pyrimidin-4-yl]-4-methyl-N-propylbenzamide] the inhibition of neutrophilia was “statistically significant inhibition”.
In the case of `Cc1ccc(C(=O)NC(C)C)cc1-c1nc(N(C)CCCN(C)C)nc2c1CNC(=O)N2c1c(F)cccc1F` [34(d), 3-{8-(2,6-difluorophenyl)-2-[[3-(dimethylamino)propyl](methyl)amino]-7-oxo-5,6,7,8-tetrahydropyrimido[4,5-d]pyrimidin-4-yl}-4-methyl-N-(1-methylethyl)benzamide], the inhibition of neutrophilia is reported as “statistically nonsignificant inhibition”.
With `Cc1ccc(C(=O)Nc2ccc(F)cc2)cc1-c1nc(N2CCC(N3CCCC3)CC2)nc2c1CNC(=O)N2c1c(F)cccc1F` [86(c), 3-{8-(2,6-difluorophenyl)-7-oxo-2-[4-(1-pyrrolidinyl)-1-piperidinyl]-5,6,7,8-tetrahydropyrimido[4,5-d]pyrimidin-4-yl}-N-(4-fluorophenyl)-4-methylbenzamide] the inhibition of neutrophilia was “statistically nonsignificant inhibition”.
`Cc1ccc(C(=O)Nc2ccc(F)cc2)cc1-c1nc(N2CCC(N3CCCCC3)CC2)nc2c1CNC(=O)N2c1c(F)cccc1F` [87(b), 3-[2-(1,4′-bipiperidin-1′-yl)-8-(2,6-difluorophenyl)-7-oxo-5,6,7,8-tetrahydropyrimido[4,5-d]pyrimidin-4-yl]-N-(4-fluorophenyl)-4-methylbenzamide] was tested, and the inhibition of neutrophilia was “statistically nonsignificant inhibition”.
`Cc1ccc(C(=O)Nc2nccs2)cc1-c1nc(NCCN(C)C)nc2c1CNC(=O)N2c1c(F)cccc1F` [118(c), 3-(8-(2,6-difluorophenyl)-2-{[2-(dimethylamino)ethyl]amino}-7-oxo-5,6,7,8-tetrahydropyrimido[4,5-d]pyrimidin-4-yl)-4-methyl-N-1,3-thiazol-2-ylbenzamide] was tested, and the inhibition of neutrophilia was “statistically significant inhibition”.
`Cc1ccc(C(=O)Nc2ccc(F)cc2)cc1-c1nc(N(C)CCCN(C)C)nc2c1CNC(=O)N2c1c(F)cccc1F` [Example 9, 3-{8-(2,6-difluorophenyl)-2-[[3-(dimethylamino)-propyl](methyl)amino]-7-oxo-5,6,7,8-tetrahydropyrimido[4,5-d]pyrimidin-4-yl}-N-(4-fluorophenyl)-4-methylbenzamide] was tested, and the inhibition of neutrophilia was “statistically nonsignificant inhibition”.
For `Cc1ccc(C(=O)Nc2ccc(F)cc2)cc1-c1nc(N(C)CCN(C)C)nc2c1CNC(=O)N2c1c(F)cccc1F` [Example 32, 3-{8-(2,6-difluorophenyl)-2-[[2-(dimethylamino)ethyl](methyl)amino]-7-oxo-5,6,7,8-tetrahydropyrimido[4,5-d]pyrimidin-4-yl}-N-(4-fluorophenyl)-4-methylbenzamide], the inhibition of neutrophilia was “statistically nonsignificant inhibition”.
For `Cc1ccc(C(=O)NC(C)C)cc1-c1nc(N(C)CCN(C)C)nc2c1CNC(=O)N2c1c(F)cccc1F` [Example 36, 3-{8-(2,6-difluorophenyl)-2-[[2-(dimethylamino)ethyl](methyl)amino]-7-oxo-5,6,7,8-tetrahydropyrimido[4,5-d]pyrimidin-4-yl}-4-methyl-N-(1-methylethyl)benzamide], the inhibition of neutrophilia was “statistically significant inhibition”.
With `Cc1ccc(C(=O)NC(C)C)cc1-c1nc(NCCN(C)C)nc2c1CNC(=O)N2c1c(F)cccc1F` [Example 37, 3-(8-(2,6-difluorophenyl)-2-{[2-(dimethylamino)ethyl]amino}-7-oxo-5,6,7,8-tetrahydropyrimido[4,5-d]pyrimidin-4-yl)-4-methyl-N-(1-methylethyl)benzamide] the inhibition of neutrophilia was “statistically nonsignificant inhibition”.
`Cc1ccc(C(=O)Nc2ccc(F)cc2)cc1-c1nc(NC2CCN(C)CC2)nc2c1CNC(=O)N2c1c(F)cccc1F` [Example 39, 3-{8-(2,6-difluorophenyl)-2-[(1-methyl-4-piperidinyl)amino]-7-oxo-5,6,7,8-tetrahydropyrimido[4,5-d]pyrimidin-4-yl}-N-(4-fluorophenyl)-4-methylbenzamide] was tested, and the inhibition of neutrophilia was “statistically nonsignificant inhibition”.
For `Cc1ccc(C(=O)NC(C)C)cc1-c1nc(NCCCN(C)C)nc2c1CNC(=O)N2c1c(F)cccc1F` [Example 40, 3-(8-(2,6-difluorophenyl)-2-{[3-(dimethylamino)propyl]amino}-7-oxo-5,6,7,8-tetrahydropyrimido[4,5-d]pyrimidin-4-yl)-4-methyl-N-(1-methylethyl)benzamide], the inhibition of neutrophilia was “statistically significant inhibition”.
With `Cc1ccc(C(=O)Nc2ccc(F)cc2)cc1-c1nc(NCCCN(C)C)nc2c1CNC(=O)N2c1c(F)cccc1F` [Example 42, 3-(8-(2,6-difluorophenyl)-2-{[3-(dimethylamino)propyl]amino}-7-oxo-5,6,7,8-tetrahydropyrimido[4,5-d]pyrimidin-4-yl)-N-(4-fluorophenyl)-4-methylbenzamide] the inhibition of neutrophilia was “statistically significant inhibition”.
With `CCN(CC)CCCNc1nc(-c2cc(C(=O)Nc3ccc(F)cc3)ccc2C)c2c(n1)N(c1c(F)cccc1F)C(=O)NC2` [Example 43, 3-[2-{[3-(diethylamino)propyl]amino}-8-(2,6-difluorophenyl)-7-oxo-5,6,7,8-tetrahydropyrimido[4,5-d]pyrimidin-4-yl]-N-(4-fluorophenyl)-4-methylbenzamide] the inhibition of neutrophilia was “inactive”.
With `CCCNC(=O)c1ccc(C)c(-c2nc(N(C)CCCN(C)C)nc3c2CNC(=O)N3c2c(F)cccc2F)c1` [Example 53, 3-{8-(2,6-difluorophenyl)-2-[[3-(dimethylamino)propyl](methyl)amino]-7-oxo-5,6,7,8-tetrahydropyrimido[4,5-d]pyrimidin-4-yl}-4-methyl-N-propylbenzamide] the inhibition of neutrophilia was “statistically nonsignificant inhibition”.
In the case of `Cc1ccc(C(=O)NC(C)C)cc1-c1nc(N2CCC(N3CCCCC3)CC2)nc2c1CNC(=O)N2c1c(F)cccc1F` [Example 57, 3-[2-(1,4′-bipiperidin-1′-yl)-8-(2,6-difluorophenyl)-7-oxo-5,6,7,8-tetrahydropyrimido[4,5-d]pyrimidin-4-yl]-4-methyl-N-(1-methylethyl)benzamide], the inhibition of neutrophilia is reported as “statistically nonsignificant inhibition”.
`Cc1ccc(C(=O)NC(C)C)cc1-c1nc(N2CCC(N3CCCC3)CC2)nc2c1CNC(=O)N2c1c(F)cccc1F` [Example 60, 3-{8-(2,6-difluorophenyl)-7-oxo-2-[4-(1-pyrrolidinyl)-1-piperidinyl]-5,6,7,8-tetrahydropyrimido[4,5-d]pyrimidin-4-yl}-4-methyl-N-(1-methylethyl)benzamide] was tested, and the inhibition of neutrophilia was “statistically nonsignificant inhibition; also recorded: inactive”.
With `Cc1ccc(C(=O)NC(C)C)cc1-c1nc(N2CCC(N3CCC(C)CC3)CC2)nc2c1CNC(=O)N2c1c(F)cccc1F` [Example 70, 3-[8-(2,6-difluorophenyl)-2-(4-methyl-1,4′-bipiperidin-1′-yl)-7-oxo-5,6,7,8-tetrahydropyrimido[4,5-d]pyrimidin-4-yl]-4-methyl-N-(1-methylethyl)benzamide] the inhibition of neutrophilia was “statistically significant inhibition”.
`Cc1ccc(C(=O)NC(C)C)cc1-c1nc(N2CCC(N3CCN(C)CC3)CC2)nc2c1CNC(=O)N2c1c(F)cccc1F` [Example 72, 3-{8-(2,6-difluorophenyl)-2-[4-(4-methyl-1-piperazinyl)-1-piperidinyl]-7-oxo-5,6,7,8-tetrahydropyrimido[4,5-d]pyrimidin-4-yl}-4-methyl-N-(1-methylethyl)benzamide] was tested, and the inhibition of neutrophilia was “statistically significant inhibition”.
`CN(C)CCNc1nc(-c2cccc(C(=O)Nc3ccccc3)c2)c2c(n1)N(c1c(F)cccc1F)C(=O)NC2` [Example 91, 3-(8-(2,6-difluorophenyl)-2-{[2-(dimethylamino)ethyl]amino}-7-oxo-5,6,7,8-tetrahydropyrimido[4,5-d]pyrimidin-4-yl)-N-phenylbenzamide] was tested, and the inhibition of neutrophilia was “statistically significant inhibition”.
